Test results: ChEMBL document CHEMBL1201862, “PubChem BioAssay data set” (2004)
The source made the active and inactive calls.

What was measured:
[1] = inhibitors of intracellular T. cruzi replication, confirmation, NIH3T3 host cells, beta-gal luminescence (AID 2044); type: functional, cell-based;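 further: intracellular parasites grown in NIH/3T3 mouse fibroblasts as host cells; luminescent beta-galactosidase reporter signal from transgenic T. cruzi replicating inside host cells; inhibitors lower the luminescence signal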
[2] = HEK293T cytotoxicity, dose response, cytotoxicity control for miR-122 modulator project, cell-based, activator set, cherry-pick (AID 720690); type: functional;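 further: HEK293T human cells scored for general mammalian cytotoxicity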
[3] = cytotoxicity toward NIH3T3 fibroblasts, dose response, counter-screen, cell-based, ATP luminescence, mouse fibroblasts (AID 2010); type: functional;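 further: cells exposed to compound for about 90 hours before reading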
[4] = biological target: T1, Rac GTPase-activating protein 1 (Homo sapiens, UniProt Q9H0H5); test: MgcRacGAP GTPase-activating activity inhibitors, confirmation, biochemical, ADP Hunter fluorescence, primary and confirmatory (AID 624330); type: functional
T1 sequence (Q9H0H5 whole entry): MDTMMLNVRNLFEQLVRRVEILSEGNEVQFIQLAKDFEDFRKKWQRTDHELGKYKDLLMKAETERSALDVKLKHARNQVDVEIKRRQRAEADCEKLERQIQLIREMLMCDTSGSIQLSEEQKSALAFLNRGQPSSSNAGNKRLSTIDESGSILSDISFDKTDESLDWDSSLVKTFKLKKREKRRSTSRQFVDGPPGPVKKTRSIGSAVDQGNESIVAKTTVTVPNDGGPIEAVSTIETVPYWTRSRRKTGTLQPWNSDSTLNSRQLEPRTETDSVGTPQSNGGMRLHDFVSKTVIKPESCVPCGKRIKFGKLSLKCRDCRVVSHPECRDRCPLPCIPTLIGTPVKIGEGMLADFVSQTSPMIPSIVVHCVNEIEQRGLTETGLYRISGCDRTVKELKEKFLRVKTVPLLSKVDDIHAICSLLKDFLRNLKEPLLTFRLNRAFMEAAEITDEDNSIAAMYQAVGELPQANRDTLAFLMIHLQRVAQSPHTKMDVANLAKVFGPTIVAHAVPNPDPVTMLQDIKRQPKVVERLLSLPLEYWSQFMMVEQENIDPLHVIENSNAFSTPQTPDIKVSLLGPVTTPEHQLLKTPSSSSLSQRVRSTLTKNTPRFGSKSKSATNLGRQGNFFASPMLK

[5] = biological target: fMet-Leu-Phe receptor (Homo sapiens, UniProt P21462); test: FPR ligands, dose response (AID 519); type: functional
[6] = HepG2 cell cytotoxicity, dose response, cytotoxicity control, ATP luminescence, cherry-pick, activator set 2 (AID 1053143); type: functional, cell-based
[7] = Luminescence Cell-Based Dose Confirmation HTS to Identify Inhibitors of Platelet Dense Granule Release. [Related pubchem assays: 1663 (Primary HTS), 1678 (Summary of Project)]; type: functional
[8] = biological target: Luciferin 4-monooxygenase (Photinus pyralis, UniProt P08659); test: firefly luciferase enzyme inhibitors, dose response, biochemical, luminescence (AID 1891)
[9] = microbe, parasite or virus in culture; type: functional; conditions: Mycobacterium tuberculosis
[10] = Vero E6 cell cytotoxicity, dose response, cytotoxicity control for non-replicating M. tuberculosis project, secondary assay (AID 492998); type: functional, VeroE6; conditions: Vero C1008
[11] = Artemis endonuclease inhibitor potency, dose response, biochemical, fluorescence intensity (AID 720701); type: functional;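 further: Artemis endonuclease enzyme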
[12] = biological target: T2, Aminopeptidase N (Plasmodium falciparum FcB1/Columbia, UniProt O96935); test: P. falciparum M1AAP inhibitors, biochemical, fluorogenic H-Leu-NHMec substrate, 1536-well (AID 1445); design: species or system Plasmodium falciparum 3D7, 3D7
T2 sequence (O96935 whole entry): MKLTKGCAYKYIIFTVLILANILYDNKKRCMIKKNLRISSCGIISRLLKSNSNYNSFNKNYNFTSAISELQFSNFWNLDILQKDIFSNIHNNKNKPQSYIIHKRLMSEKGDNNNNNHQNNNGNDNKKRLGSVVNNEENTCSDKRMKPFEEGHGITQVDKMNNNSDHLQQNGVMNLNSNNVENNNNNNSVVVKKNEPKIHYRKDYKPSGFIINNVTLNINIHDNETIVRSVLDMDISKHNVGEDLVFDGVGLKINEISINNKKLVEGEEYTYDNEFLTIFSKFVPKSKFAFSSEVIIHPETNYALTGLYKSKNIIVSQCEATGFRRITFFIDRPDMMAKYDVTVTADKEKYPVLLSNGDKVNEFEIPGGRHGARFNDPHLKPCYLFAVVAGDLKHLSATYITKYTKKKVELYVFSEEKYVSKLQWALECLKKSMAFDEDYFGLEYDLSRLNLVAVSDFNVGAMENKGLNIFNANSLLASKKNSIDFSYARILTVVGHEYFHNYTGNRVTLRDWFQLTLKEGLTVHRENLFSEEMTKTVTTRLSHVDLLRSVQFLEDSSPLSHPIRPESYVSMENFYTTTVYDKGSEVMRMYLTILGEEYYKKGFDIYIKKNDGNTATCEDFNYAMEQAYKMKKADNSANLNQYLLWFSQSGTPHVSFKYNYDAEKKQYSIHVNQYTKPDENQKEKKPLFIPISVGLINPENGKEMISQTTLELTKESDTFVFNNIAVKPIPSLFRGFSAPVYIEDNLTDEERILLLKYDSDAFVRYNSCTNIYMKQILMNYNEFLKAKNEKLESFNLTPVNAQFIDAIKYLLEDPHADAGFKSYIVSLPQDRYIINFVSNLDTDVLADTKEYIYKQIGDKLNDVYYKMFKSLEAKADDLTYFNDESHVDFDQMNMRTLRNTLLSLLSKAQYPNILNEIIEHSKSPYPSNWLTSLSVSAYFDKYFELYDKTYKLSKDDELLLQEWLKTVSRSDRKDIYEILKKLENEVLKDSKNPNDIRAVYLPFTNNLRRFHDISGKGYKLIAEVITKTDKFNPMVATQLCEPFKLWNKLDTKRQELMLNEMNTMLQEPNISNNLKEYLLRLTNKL

[13] = cells; type: functional
[14] = inhibitors of control Renilla luciferase reporter, dose response, counter-screen for Shn3 3'UTR targeting project, Clone20-Shn3RL cells, dual-Glo, cherry-pick, set 2 (AID 720724); type: functional, cell-based; conditions: Dual-Go Shn3RL
[15] = control 3'UTR Renilla luciferase suppression, dose response, counter-screen for Shn3 inhibitor project, cell-based, Clone20-Shn3RL, cherry-picked (AID 624133); type: functional
[16] = Shn3 3'UTR reporter inhibitors, dose response, cell-based, Clone20 osteoblasts, firefly luciferase, cherry-picked (AID 624132); type: functional;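 further: firefly luciferase luminescence from reporter carrying the Shn3 3'UTR in osteoblasts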
[17] = reduction of Shn3 3'UTR firefly luciferase signal, dose response, Schnurri-3 inhibitor project, cell-based, Clone20 osteoblasts, cherry-pick, set 2 (AID 720490); type: functional;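 further: actives lower the luminescence signal as inhibitors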
[18] = biological target: Paired box protein Pax-8 (Homo sapiens, UniProt Q06710); test: inhibitors of PAX8-driven TPO luciferase reporter, dose response, RMG-I cells, cherry-pick (AID 687027); type: functional, cell-based;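 further: luciferase reporter driven by Pax8 target thyroperoxidase promoter measured by SteadyGlo luminescence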
[19] = A2780 ovarian cancer cell cytotoxicity, dose response, cytotoxicity control, plate reader, dry powder samples (AID 743046); type: functional, cell-based
[20] = cytotoxicity in OVCAR8 ovarian cancer cells, dose response, PAX8 project, cell-based, plate reader, dry powder samples (AID 743197); type: functional; conditions: OVCAR-8
[21] = IGROV1 ovarian cancer cell cytotoxicity, dose response, PAX8 inhibitor project, plate reader, dry powder samples (AID 743043); type: functional, cell-based; conditions: IGROV-1
[22] = NIH:OVCAR-3 ovarian cancer cell cytotoxicity, dose response, PAX8 inhibitor project, plate reader, dry powder samples (AID 743044); type: functional, cell-based
[23] = CEM21 cell cytotoxicity, dose response, cytotoxicity control, plate reader, dry powder (AID 687026); type: functional, cell-based
[24] = ZM109 Env clade C HIV-1 fusion inhibitors, dose response, HeLa effector, CEM target cells, luciferase, cherry-pick (AID 652058); type: functional, cell-based
[25] = inhibitors of clade B AD8 Env fusion, dose response, cell-based, cherry-pick (AID 652062); type: functional;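 further: luciferase signal from cell-cell fusion driven by HIV-1 clade B AD8 Env; potency is for inhibitors of fusion seen as a drop in luminescence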
[26] = inhibitors of HIV Env-driven cell fusion, dose response, cherry-pick (AID 652057); type: functional, cell-based
[27] = A Cell-Based Confirmatory Screen for Compounds that Inhibit VEEV, TC-83 (8).; type: functional
[28] = biological target: Potassium channel subfamily K member 9 (Homo sapiens, UniProt Q9NPC2); test: TASK3 (KCNK9) channel inhibitors, thallium flux, SAR follow-up, selectivity assay for TASK1 inhibitor project, cell-based, FluxOR thallium flux, concentration-response (AID 652211); type: functional;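 further: potency is for inhibitors of the channel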
[29] = biological target: Potassium channel subfamily K member 3 (Homo sapiens, UniProt O14649); test: TASK1 (KCNK3) potassium channel inhibitors, SAR follow-up, CHO cells, FluxOR thallium flux (AID 652212); type: functional
[30] = biological target: Mu-type opioid receptor (Homo sapiens, UniProt P35372); test: Late-stage results from the probe development effort to identify antagonists of OPRK1: luminescence-based cell-based dose response OPRM1 counterscreen.; type: functional
[31] = biological target: Delta-type opioid receptor (Homo sapiens, UniProt P41143); test: Late-stage results from the probe development effort to identify antagonists of OPRK1: fluorescence-based cell-based dose response OPRD1 counterscreen.; type: functional
[32] = biological target: Vasopressin V1b receptor (Homo sapiens, UniProt P47901); test: Late-stage results from the probe development effort to identify antagonists of arginine vasopressin receptor 1a (AVPR1a): fluorescence-based cell-based dose response AVPR1b inhibition counterscreen assay.; type: functional
[33] = Late-stage results from the probe development effort to identify antagonists of arginine vasopressin receptor 1a (AVPR1a): fluorescence-based cell-based dose response AVPR1a inhibition assay.; type: functional
[34] = biological target: Vasopressin V2 receptor (Homo sapiens, UniProt P30518); test: Late-stage results from the probe development effort to identify antagonists of arginine vasopressin receptor 1a (AVPR1a): fluorescence-based cell-based dose response AVPR2 inhibition counterscreen assay.; type: functional
[35] = Late-stage results from the probe development effort to identify antagonists of arginine vasopressin receptor 1a (AVPR1a): fluorescence-based cell-based dose response OXTR inhibition counterscreen assay.; type: functional
[36] = A375 melanoma cell viability loss, dose response, counter-screen for MITF inhibitor project, CellTiter-Glo luminescence, dry powder, set 4 (AID 624364); type: functional, cell-based; conditions: A-375;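 further: A375 melanoma cells are MITF independent so this is a counter screen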
[37] = A375 melanoma cell cytotoxicity, dose response, counter-screen for MITF inhibitor project, CellTiter-Glo luminescence, dry powder, set 2 (AID 624489); type: functional, cell-based; conditions: A-375;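 further: actives are compounds lowering A375 viability meaning general cytotoxicity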
[38] = biological target: NAD-dependent protein deacylase sirtuin-5, mitochondrial (Homo sapiens, UniProt Q9NXA8); test: SIRT5 deacylase inhibitors, dose response, biochemical, fluorescence imaging, cherry-pick, set 6 (AID 720597)
[39] = inhibitors of fibronectin matrix deposition, dose response, AH1F cells, Alexa488-FN fluorescence, cherry-picks (AID 1035475); type: functional, cell-based

Sequence of Mu-type opioid receptor (P35372 whole entry): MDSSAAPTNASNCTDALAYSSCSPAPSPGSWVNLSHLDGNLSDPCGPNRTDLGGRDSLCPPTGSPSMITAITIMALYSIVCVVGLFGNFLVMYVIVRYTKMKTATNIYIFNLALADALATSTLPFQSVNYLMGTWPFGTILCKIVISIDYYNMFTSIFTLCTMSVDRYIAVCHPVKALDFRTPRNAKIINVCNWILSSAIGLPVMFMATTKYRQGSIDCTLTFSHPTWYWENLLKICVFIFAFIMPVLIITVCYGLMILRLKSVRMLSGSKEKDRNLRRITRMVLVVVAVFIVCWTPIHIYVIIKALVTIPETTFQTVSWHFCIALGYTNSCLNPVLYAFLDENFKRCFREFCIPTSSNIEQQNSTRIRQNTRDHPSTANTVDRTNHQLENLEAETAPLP
Sequence of Vasopressin V1b receptor (P47901 whole entry): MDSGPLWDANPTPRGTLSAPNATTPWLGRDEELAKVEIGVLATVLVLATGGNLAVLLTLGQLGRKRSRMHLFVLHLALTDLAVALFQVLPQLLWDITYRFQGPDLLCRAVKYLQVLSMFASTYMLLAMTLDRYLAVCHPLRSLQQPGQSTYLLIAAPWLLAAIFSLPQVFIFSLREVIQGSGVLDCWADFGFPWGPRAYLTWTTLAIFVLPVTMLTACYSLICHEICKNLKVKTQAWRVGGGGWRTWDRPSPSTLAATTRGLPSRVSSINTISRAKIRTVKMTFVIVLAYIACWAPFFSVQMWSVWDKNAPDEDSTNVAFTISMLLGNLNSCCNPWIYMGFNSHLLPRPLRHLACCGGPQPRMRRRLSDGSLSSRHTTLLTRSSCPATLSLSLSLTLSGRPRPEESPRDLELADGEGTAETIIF
Sequence of Potassium channel subfamily K member 9 (Q9NPC2 whole entry): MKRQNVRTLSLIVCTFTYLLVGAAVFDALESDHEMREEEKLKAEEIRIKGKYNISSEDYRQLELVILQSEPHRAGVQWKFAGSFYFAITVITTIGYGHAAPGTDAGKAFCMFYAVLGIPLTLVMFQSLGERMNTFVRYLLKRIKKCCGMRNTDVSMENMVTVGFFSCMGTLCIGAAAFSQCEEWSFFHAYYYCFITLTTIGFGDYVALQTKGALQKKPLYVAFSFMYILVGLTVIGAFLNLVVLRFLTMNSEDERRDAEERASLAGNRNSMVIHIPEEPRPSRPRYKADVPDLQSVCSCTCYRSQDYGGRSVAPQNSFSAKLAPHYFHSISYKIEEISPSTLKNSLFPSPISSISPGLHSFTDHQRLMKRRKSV
Sequence of Vasopressin V2 receptor (P30518 whole entry): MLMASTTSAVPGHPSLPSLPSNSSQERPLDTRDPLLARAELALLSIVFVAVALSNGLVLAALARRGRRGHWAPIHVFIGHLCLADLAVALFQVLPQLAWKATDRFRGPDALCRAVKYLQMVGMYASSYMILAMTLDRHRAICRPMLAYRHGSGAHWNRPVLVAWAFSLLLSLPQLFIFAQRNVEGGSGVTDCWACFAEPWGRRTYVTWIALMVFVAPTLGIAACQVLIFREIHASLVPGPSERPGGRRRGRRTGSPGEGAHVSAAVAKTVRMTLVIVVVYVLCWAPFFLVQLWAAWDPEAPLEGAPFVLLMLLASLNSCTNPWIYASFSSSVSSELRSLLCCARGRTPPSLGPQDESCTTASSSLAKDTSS
Sequence of Potassium channel subfamily K member 3 (O14649 whole entry): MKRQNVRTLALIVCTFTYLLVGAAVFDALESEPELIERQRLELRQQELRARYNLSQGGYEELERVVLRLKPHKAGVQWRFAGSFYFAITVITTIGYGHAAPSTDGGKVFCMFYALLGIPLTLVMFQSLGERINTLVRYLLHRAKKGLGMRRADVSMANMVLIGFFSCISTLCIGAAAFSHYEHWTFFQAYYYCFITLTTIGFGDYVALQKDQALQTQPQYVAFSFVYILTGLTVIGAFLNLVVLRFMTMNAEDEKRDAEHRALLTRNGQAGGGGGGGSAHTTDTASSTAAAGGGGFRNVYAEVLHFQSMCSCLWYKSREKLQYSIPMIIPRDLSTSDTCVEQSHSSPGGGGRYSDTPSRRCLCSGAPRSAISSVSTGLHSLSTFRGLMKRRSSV
Sequence of fMet-Leu-Phe receptor (P21462 whole entry): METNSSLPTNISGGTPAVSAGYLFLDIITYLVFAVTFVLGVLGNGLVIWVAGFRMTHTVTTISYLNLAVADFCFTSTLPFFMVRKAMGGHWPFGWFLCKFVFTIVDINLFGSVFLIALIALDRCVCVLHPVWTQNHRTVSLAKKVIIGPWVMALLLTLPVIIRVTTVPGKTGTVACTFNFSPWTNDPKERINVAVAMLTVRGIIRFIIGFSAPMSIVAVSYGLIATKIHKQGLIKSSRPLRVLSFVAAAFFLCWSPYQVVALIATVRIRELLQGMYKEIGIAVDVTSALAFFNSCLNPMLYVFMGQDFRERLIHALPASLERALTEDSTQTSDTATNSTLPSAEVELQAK
Sequence of Paired box protein Pax-8 (Q06710 whole entry): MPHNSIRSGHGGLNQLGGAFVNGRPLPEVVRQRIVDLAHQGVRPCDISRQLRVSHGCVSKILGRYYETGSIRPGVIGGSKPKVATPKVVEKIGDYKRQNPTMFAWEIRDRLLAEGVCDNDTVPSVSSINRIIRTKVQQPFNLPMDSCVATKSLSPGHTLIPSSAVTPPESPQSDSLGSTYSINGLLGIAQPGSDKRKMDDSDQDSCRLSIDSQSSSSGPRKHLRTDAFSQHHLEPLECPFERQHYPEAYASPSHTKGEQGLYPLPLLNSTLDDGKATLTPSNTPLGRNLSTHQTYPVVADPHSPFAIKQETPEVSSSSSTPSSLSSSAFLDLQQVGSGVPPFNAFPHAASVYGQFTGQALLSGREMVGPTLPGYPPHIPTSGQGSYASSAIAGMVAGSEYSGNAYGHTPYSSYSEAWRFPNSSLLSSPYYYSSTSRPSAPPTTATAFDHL
Sequence of Luciferin 4-monooxygenase (P08659 whole entry): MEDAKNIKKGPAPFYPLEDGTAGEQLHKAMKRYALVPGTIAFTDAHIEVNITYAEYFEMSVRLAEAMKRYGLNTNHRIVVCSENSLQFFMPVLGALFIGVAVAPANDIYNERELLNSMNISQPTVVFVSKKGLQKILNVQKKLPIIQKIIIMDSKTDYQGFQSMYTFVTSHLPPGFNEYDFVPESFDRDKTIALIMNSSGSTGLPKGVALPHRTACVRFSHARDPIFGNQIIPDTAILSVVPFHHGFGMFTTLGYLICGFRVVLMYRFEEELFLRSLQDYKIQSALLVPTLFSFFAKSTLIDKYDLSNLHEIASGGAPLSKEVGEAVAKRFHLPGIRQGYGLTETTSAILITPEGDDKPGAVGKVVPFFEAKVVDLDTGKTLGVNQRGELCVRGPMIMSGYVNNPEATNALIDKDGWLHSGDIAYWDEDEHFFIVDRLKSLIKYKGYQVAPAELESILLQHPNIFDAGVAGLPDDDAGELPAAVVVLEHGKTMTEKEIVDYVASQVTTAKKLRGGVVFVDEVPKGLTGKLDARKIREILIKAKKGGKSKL
Sequence of NAD-dependent protein deacylase sirtuin-5, mitochondrial (Q9NXA8 whole entry): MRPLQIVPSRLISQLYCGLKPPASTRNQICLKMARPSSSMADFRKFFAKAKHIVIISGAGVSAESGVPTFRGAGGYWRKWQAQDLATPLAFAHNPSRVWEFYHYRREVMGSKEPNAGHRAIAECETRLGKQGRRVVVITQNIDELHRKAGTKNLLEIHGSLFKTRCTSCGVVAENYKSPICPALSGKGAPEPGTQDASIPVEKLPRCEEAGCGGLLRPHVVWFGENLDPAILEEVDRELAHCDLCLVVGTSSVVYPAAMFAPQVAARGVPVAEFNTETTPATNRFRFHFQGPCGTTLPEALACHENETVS
Sequence of Delta-type opioid receptor (P41143 whole entry): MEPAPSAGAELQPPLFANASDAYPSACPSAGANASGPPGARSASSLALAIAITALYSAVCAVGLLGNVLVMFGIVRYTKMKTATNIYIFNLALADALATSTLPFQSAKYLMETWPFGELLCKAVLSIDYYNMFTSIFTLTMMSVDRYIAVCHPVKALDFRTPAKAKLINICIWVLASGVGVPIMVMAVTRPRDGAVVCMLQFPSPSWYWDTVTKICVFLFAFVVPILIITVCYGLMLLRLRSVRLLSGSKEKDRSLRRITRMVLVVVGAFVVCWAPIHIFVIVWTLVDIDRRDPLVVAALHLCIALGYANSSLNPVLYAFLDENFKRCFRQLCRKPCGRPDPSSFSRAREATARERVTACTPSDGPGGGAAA

SMILES: O=C(Nc1nc(-c2cc3ccccc3o2)cs1)c1ccc(S(=O)(=O)N2CCCC2)cc1
- EC50 [1]: 4.21 µM (active)
- AC50 [2]: 10.9 µM (active)
- EC50 [3]: > 30 µM (not active)

SMILES: CCCN=C(S)Nc1ccc(Nc2ccccc2)cc1
- IC50 [4]: 82.4 µM (active)
- Ki [5]: > 66.7 µM (inactive)

SMILES: Cc1ccccc1Nc1nc(N)c2ccccc2n1
- AC50 [6]: 26 µM (active)
- EC50 [7]: 3.1 µM (active)
- EC50 [8]: 1.26 µM (active)

SMILES: Cc1cc(Cl)ccc1OCCCC(=O)NO
- CC50 [9]: 29.4 µM (active)
- CC50 [10]: 18.9 µM (active)
- IC50 [11]: 1.59 µM (active)
- IC50 [12]: 43.1 µM (active)
- IC50 [13]: 27.9 µM (active)

SMILES: CCOc1ccc(Cn2nnc(C(=O)Nc3cc(OC)cc(OC)c3)c2N)cc1
- AC50 [14]: 38.5 µM (active)
- AC50 [15]: 26.9 µM (active)
- AC50 [16]: 5.3 µM (active)
- AC50 [17]: 9.37 µM (active)

SMILES: C[C@@H]1CCCCO[C@@H](CN(C)Cc2ccccc2)[C@H](C)CN([C@@H](C)CO)C(=O)c2cc(NC(=O)Nc3ccc(C(F)(F)F)cc3)ccc2O1
- AC50 [18]: 10.8 µM (active)
- AC50 [19]: 44.6 µM (active)
- AC50 [20]: 42.2 µM (active)
- AC50 [21]: 47.9 µM (active)
- AC50 [22]: 23.1 µM (active)

SMILES: Cc1ccc(S(=O)(=O)Nc2cccc3c2O[C@@H](CN(C)Cc2ccc(Cl)c(Cl)c2)[C@@H](C)CN([C@H](C)CO)C3=O)cc1
- AC50 [23]: 19.2 µM (active)
- AC50 [24]: 2.75 µM (active)
- AC50 [25]: 65.4 µM (active)
- AC50 [26]: 12.1 µM (active)

SMILES: CN1CCN(C)/C(=N/c2ccc(C#N)cc2C(=O)Nc2cccc(F)c2)C1
- IC50 [27]: 0.84 µM (active)

SMILES: CCOc1cccc(NC(=O)c2cccc(NC(=O)C3CCCC3)c2)c1
- IC50 [28]: 4.07 µM (active)
- IC50 [29]: 0.491 µM (active)

SMILES: COC(=O)c1cc(Br)cnc1N1CCC(N[C@@H]2CCCC[C@H]2O)CC1
- IC50 [30]: 2.8 µM (active)
- IC50 [31]: 3.36 µM (active)

SMILES: N#Cc1cccnc1N1CCC(C(=O)N(CC2CC2)c2ccc(Cl)cc2)CC1
- IC50 [32]: 14 µM (inactive)
- IC50 [33]: 0.067 µM (active)
- IC50 [34]: 24.4 µM (inactive)
- IC50 [35]: 6.8 µM (active)

SMILES: O=C1C(Nc2ccccc2)=C(N2CCSCC2)C(=O)c2ccccc21
- AC50 [36]: > 70 µM (inactive)
- AC50 [37]: 69.3 µM (active)

SMILES: C[C@@H]1CN([C@@H](C)CO)C(=O)c2cc(NS(C)(=O)=O)ccc2O[C@@H](C)CCCCO[C@H]1CN(C)Cc1ccc(C(F)(F)F)cc1
- AC50 [38]: > 30 µM (inactive)

SMILES: C[C@H]1CN([C@@H](C)CO)C(=O)c2cc(NC(=O)CCCN(C)C)ccc2O[C@@H]1CN(C)Cc1ccc(-c2ccccc2)cc1
- AC50 [39]: > 70 µM (inactive)
